Experimental data: patent US20090048160A1, “Antimicrobial activity of bovine bactericidal/permeability-increasing protein (BPI)-derived peptides against Gram-negative bacterial mastitis isolates” (priority 2007, published 2009)
Read-outs that look alike come from different tables or passages of the source. Ends that are not written are not given here.

Tests used:
Assay type in all cases: cell-based
[1] = test system: Enterobacter aerogenes
Excerpt: (§1) Bacterial isolates of Escherichia coli, Klebsiella pneumonia, Serratia marcescens, Pseudomonas aeruginosa, Enterobacter cloacae, and Enterobacter aerogenes, which were obtained from clinical cases of bovine mastitis, were used to assess the bactericidal activity of peptides in a broth microdilution assay. Isolates were obtained from repositories at Cornell University (gift of Dr. Y. H. Schukken; Quality Milk Production Services Program, Cornell University, Ithaca N.Y.) and the USDA Beltsville Agricultural Research Center. […] A. J. Bramley, Institute for Animal Health, Compton Laboratory, Newbury, England), which was originally isolated from a clinical case of mastitis ([…]. Dairy Res. 43: 205-211) was also used to assess the bactericidal activity of the peptides in biological fluids. Reference strains of E. coli (ATCC 25922) and Staphylococcus aureus (ATCC 29213) were obtained from a commercial source (American Type Culture Collection (ATCC), Manassas, Va.). To obtain fresh inoculums for evaluation, a sterile loop of each bacterial glycerol stock was streaked on a blood agar plate. After an overnight incubation at 35° C., a single uniform colony was picked and sub-passaged by streaking on a new blood agar plate and incubating the plate overnight at 35° C. To evaluate the antimicrobial activity of the peptides against various clinical mastitis bacterial isolates, the minimum inhibitory concentration (MIC) and the minimum bactericidal concentration (MBC) of these peptides against the isolates were determined using a standardized broth microdilution assay. In addition to the mastitis isolates, E. coli (ATCC 25922) and S. aureus (ATCC 29213) reference strains were evaluated. […] The assays were performed in accordance with Clinical and Laboratory Standards Institute (CLSI) [formerly National Committee for Clinical Laboratory Standards (NCCLS)] guidelines (National Committee for Clinical Laboratory Standards. 1999. Methods for Determining Bacterial Activity of Antimicrobial Agents: Approved Guideline. Wayne, Pa.; National Committee for Clinical Laboratory Standards. 2002. Performance Standards for Antimicrobial Disk and Dilution Susceptibility Tests for Bacteria Isolated from Animals: Approved Standard. 2nd Edition, Wayne, Pa.). […] The bacterial suspension was then diluted 100-fold in cation-adjusted Mueller-Hinton broth to reach a final inoculum concentration of 10^6 CFU/ml. […] A negative control column was included in the plate that included 100 μl of broth alone. The plates were incubated for 18 h at 35° C. with ambient air circulation and without shaking. The wells were subsequently inspected for cloudiness and pellet formation using a magnifying glass plate reader. The lowest concentration at which no pellet or cloudiness was apparent in a given well was identified as the MIC. […] The plates were incubated overnight at 35° C. and colonies subsequently enumerated. The MBC values were determined as the lowest concentration at which ≧99.9% of inoculated bacteria were killed. All assays were performed in triplicate and the MIC and MBC range reported.

[2] = test system: Enterobacter cloacae; test: microbe, parasite or virus in culture
Excerpt: as §1

[3] = test system: Pseudomonas aeruginosa; test: microbe, parasite or virus in culture
Excerpt: as §1

[4] = test system: Serratia marcescens; test: microbe, parasite or virus in culture
Excerpt: as §1

[5] = test system: Staphylococcus aureus; test: microbe, parasite or virus in culture
Excerpt: as §1

[6] = test system: E. coli strain P4; test: bactericidal activity in serum; conditions: for Mean log10 colony forming units: serum, 6 hours at 37° C.
Description: (§2) Milk and blood samples were aseptically collected from 8 clinically healthy primiparous Holstein cows in mid-lactation with milk somatic cell counts of <150,000 cells/ml. All cows were determined to be free of intramammary pathogens by the absence of growth on blood agar plates spread with milk samples aseptically collected from each animal on 3 different days. For the preparation of whey, milk samples were centrifuged at 44,000×g at 4° C. for 30 min, and the fat layer removed with a spatula. The skim milk was transferred into another sterile tube, centrifuged for an additional 30 min, and the translucent supernatant collected. Milk and whey samples were pasteurized by heating at 63° C. for 30 min. For the preparation of serum, blood was collected from the coccygeal vein into vacutainer tubes containing gel and clot activator (BD Biosciences) for serum separation. The tubes were inverted ×5, the blood allowed to clot for 30 min, and the tubes centrifuged at 1500×g for 15 min. The clear serum supernatants were aseptically transferred into sterile tubes and heat-inactivated by incubating at 56° C. for 30 min. An aliquot of each sample was plated on blood agar plates and samples that were free of detectable bacterial growth were stored at −20° C.
(§3) Overnight bacterial cultures of E. coli strain P4 grown in trypticase soy broth were diluted 1:1,000 in brain heart infusion broth and incubated at 37° C. for 2 hours while shaking at 225 rpm. The log-phase bacteria were diluted 1:10 in brain heart infusion broth to obtain a final concentration of […]. 0.01 ml of the bacterial inoculum was added to a 1.5 ml sterile microcentrifuge tube containing 0.04 ml of serum, milk, or whey. A 0.05 ml aliquot of either peptide or CBS alone was added to each tube. The samples were then shaken at 100 rpm for 6 hours at 37° C. The sample mixtures were subsequently serially diluted in sterile phosphate-buffered saline and plated on MacConkey agar plates (BD Biosciences). The plates were incubated overnight at 37° C. and the colonies enumerated.
(§4) To determine whether bBPI142-169 and bBPI90-99,148-161 retained their bactericidal activity in physiological fluids, the peptides were incubated with E. coli strain P4 (1×10^5 CFU) in the presence of serum (Table 2) or milk (Table 3).

[7] = test system: E. coli strain P4; conditions: for Mean log10 colony forming units: milk, 6 hours at 37° C.
Description: as §2, §3, §4
However, bBPI90-99,148-161 was able to inhibit >99% of the growth of E. coli in milk. Because milk appeared to have an inhibitory effect on the bactericidal activity of bBPI90-99,148-161, the peptides were subsequently evaluated for their ability to retain activity in whey, which is the casein-depleted, protein-rich liquid fraction of milk (Table 4).

Sequence | MBC [1] [µg/mL] | MIC [1] [µg/mL] | MBC [4] [µg/mL] | MIC [4] [µg/mL] | MBC [5] [µg/mL] | MIC [5] [µg/mL] | Mean log10 colony forming units ([6]; peptide 0.1 μg/ml) | Mean log10 colony forming units ([6]; peptide 1 μg/ml) | Mean log10 colony forming units ([6]; peptide 10 μg/ml) | Mean log10 colony forming units ([6]; peptide 100 μg/ml) | Mean log10 colony forming units ([7]; peptide 20 μg/ml) | Mean log10 colony forming units ([7]; peptide 200 μg/ml) | Mean log10 colony forming units ([7]; peptide 2000 μg/ml) | MBC [2] [µg/mL] | MIC [2] [µg/mL] | MBC [3] [µg/mL] | MIC [3] [µg/mL] | further results
KWKARKNFIKGSSLGWLIQLFRKR [bBPI90-99,148-161] | 64 | 64 | >512 | >512 | 64 to 128 | 64 | 8.25 log10 colony forming units | 8.15 log10 colony forming units | 0 log10 colony forming units | 0 log10 colony forming units | 8.65 log10 colony forming units | 7.89 log10 colony forming units | 6.55 log10 colony forming units |  |  |  |  | MIC and MBC values [2]: ≤ 64 µg/mL; MIC and MBC values [3]: ≤ 128 µg/mL; concentrations at which bactericidal activity was demonstrated ([6]; in the presence of serum): ≥ 10 µg/mL; inhibition of the growth of E. coli ([7]; strain P4, 2 mg/ml): > 99%
NSQIRPLPDKGLDLSIRDASIKIRGKWKARKNFIK [bBPI65-99] | >256 | >256 | >512 | >512 | >256 | >256 | 8.27 log10 colony forming units | 8.28 log10 colony forming units | 8.23 log10 colony forming units | 8.07 log10 colony forming units | 8.69 log10 colony forming units | 8.54 log10 colony forming units | 8.06 log10 colony forming units | >256 | >256 | >256 | >256 | 
VRIHISGSSLGWLIQLFRKRIESLLQKS [bBPI142-169] | >256 |  | >512 | >512 | 128 to 256 | 128 to 256 | 8.42 log10 colony forming units | 8.38 log10 colony forming units | 8.29 log10 colony forming units | 7.96 log10 colony forming units | 8.67 log10 colony forming units | 8.55 log10 colony forming units | 7.99 log10 colony forming units | >256 | >256 | >256 | >256 | 
